Test results taken from patent US20240246948A1, “BENZAMIDE DERIVATIVE, METHOD FOR PREPARING SAME, AND PHARMACEUTICAL COMPOSITION FOR PREVENTION OR TREATMENT OF CANCER CONTAINING SAME AS ACTIVE INGREDIENT” (HK INNO.N CORPORATION, priority 2021, published 2024).

Columns and labels:
[1] = target: Ba/F3 EGFR L858R/T790M (LT) (Homo sapiens, UniProt P00533, T790M/L858R, cells depend on it); assay: Cell growth inhibitory ability in Ba/F3 cells overexpressing EGFR L858R/T790M (MTS, CellTiter 96 AQueous); format: cell-based; conditions: 72 hours, MTS absorbance at 490 nm, read-out: Ba/F3 EGFR double mutant L858R/T790M, IC50
Procedure: (§1) In order to confirm that the compound represented by formula 1 provided in one aspect of the present invention acts as an allosteric inhibitor against WT and mutant of EGFR, the cell growth inhibitory effect was evaluated in BaF3 cells overexpressing WT and mutant of EGFR.
(§2) More specifically, the cell growth inhibitory ability of the compound of the present invention to the Ba/F3 cell line overexpressing WT and mutant of EGFR was evaluated using CellTiter 96 AQueous Non-Radioactive Cell Proliferation Assay system of Promega, as follows. AQueous Non-Radioactive Cell Proliferation Assay is a method of confirming cell growth inhibitory ability by measuring the degree of color development by reducing MTS (3-(4,5-Dimethylthiazol-2-yl)-5-(3-carboxymethoxyphenyl)-2-(4-sulfophenyl)-2H-tetrazolium) to Formazan by a reductase secreted by mitochondria present in living cells in a cell culture state. The Ba/F3 EGFR WT and Ba/F3 EGFR del19/T790M/C797S (DTC), Ba/F3 EGFR L858R (L), Ba/F3 EGFR L858R/T790M (LT), and Ba/F3 EGFR L858R/T790M/C797S (LTC) mutation cell lines used in the present invention were purchased from the laboratory of Professor Byung-cheol Cho, Yonsei University. All cell lines were cultured in RPMI supplemented with 10% FBS, 1% penicillin-streptomycin and 1 μg/ml of puromycine in a 5% CO2 incubator at 37° C.
(§3) The cell survival inhibitory effect of the compound according to each EGFR mutation was analyzed by the following analysis method.
(§4) BaF3 cells were distributed in a 96-well cell culture plate at the density of 2000˜10000 cells/100 μL/well, and cultured for 24 hours. Thereafter, the concentration of the compound represented by formula 1 provided in one aspect of the present invention was prepared to double the final concentrations of 0.1 nM, 1 nM, 10 nM, 100 nM, 1000 nM and 10000 nM, and the compound was treated to the plate (100 μL/well). The plate was reacted in an incubator at 37° C. for 72 hours. Then, MTS was treated to the plate (20 μL/well) and the plate was incubated at 37° C. for 2 to 4 hours. Finally, after measuring the absorbance at 490 nm using a microplate reader, the relative value compared to 0 nM (% Control) was obtained to confirm the cell growth inhibitory ability of the compound. The measured values were analyzed using Prism program (version 8.0, Graphpad Software, Inc.), and the IC50 value (Inhibition concentration 50), an indicator of the cell growth inhibitory ability of the compound, was calculated.

[2] = target: Ba/F3 EGFR L858R/T790M/C797S (LTC) (Homo sapiens, UniProt P00533, T790M/C797S/L858R, cells depend on it); assay: Cell growth inhibitory ability in Ba/F3 cells overexpressing EGFR L858R/T790M/C797S (MTS, CellTiter 96 AQueous); format: cell-based; conditions: 72 hours, MTS absorbance at 490 nm, read-out: Ba/F3 EGFR triple mutant L858R/T790M/C797S, IC50
Procedure: as §1, §2, §3, §4

Chain of Ba/F3 EGFR L858R/T790M (LT) (P00533 whole entry T790M/L858R): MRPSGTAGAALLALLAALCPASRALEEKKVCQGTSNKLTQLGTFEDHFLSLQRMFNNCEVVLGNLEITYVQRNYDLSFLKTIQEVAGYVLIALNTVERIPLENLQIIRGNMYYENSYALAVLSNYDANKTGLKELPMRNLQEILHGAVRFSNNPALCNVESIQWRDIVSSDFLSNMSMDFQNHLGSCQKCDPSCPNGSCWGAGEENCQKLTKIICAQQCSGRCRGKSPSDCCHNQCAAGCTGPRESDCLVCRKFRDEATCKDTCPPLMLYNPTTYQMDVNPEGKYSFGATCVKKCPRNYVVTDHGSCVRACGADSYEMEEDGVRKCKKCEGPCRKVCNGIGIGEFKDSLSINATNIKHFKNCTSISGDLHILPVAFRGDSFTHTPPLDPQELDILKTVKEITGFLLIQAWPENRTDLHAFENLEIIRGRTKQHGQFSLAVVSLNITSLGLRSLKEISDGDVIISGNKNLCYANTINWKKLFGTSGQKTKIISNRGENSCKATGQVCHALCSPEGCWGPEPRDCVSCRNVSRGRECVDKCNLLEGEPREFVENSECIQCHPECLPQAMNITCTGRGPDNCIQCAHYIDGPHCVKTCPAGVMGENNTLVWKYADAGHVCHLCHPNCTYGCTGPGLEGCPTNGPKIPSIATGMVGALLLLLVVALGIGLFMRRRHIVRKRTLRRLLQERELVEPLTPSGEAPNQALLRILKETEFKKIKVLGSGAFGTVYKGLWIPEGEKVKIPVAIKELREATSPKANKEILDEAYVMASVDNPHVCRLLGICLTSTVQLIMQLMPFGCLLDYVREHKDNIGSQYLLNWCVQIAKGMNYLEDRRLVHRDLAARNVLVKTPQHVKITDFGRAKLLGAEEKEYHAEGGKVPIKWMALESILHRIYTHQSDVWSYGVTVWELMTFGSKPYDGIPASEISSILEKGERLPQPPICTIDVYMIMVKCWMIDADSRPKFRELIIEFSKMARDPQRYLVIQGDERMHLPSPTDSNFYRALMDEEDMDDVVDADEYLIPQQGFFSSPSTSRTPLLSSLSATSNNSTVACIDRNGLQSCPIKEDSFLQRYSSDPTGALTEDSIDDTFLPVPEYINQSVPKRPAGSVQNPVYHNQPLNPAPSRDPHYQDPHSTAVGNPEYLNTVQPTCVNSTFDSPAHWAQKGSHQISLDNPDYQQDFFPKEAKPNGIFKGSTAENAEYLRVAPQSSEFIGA
Chain of Ba/F3 EGFR L858R/T790M/C797S (LTC) (P00533 whole entry T790M/C797S/L858R): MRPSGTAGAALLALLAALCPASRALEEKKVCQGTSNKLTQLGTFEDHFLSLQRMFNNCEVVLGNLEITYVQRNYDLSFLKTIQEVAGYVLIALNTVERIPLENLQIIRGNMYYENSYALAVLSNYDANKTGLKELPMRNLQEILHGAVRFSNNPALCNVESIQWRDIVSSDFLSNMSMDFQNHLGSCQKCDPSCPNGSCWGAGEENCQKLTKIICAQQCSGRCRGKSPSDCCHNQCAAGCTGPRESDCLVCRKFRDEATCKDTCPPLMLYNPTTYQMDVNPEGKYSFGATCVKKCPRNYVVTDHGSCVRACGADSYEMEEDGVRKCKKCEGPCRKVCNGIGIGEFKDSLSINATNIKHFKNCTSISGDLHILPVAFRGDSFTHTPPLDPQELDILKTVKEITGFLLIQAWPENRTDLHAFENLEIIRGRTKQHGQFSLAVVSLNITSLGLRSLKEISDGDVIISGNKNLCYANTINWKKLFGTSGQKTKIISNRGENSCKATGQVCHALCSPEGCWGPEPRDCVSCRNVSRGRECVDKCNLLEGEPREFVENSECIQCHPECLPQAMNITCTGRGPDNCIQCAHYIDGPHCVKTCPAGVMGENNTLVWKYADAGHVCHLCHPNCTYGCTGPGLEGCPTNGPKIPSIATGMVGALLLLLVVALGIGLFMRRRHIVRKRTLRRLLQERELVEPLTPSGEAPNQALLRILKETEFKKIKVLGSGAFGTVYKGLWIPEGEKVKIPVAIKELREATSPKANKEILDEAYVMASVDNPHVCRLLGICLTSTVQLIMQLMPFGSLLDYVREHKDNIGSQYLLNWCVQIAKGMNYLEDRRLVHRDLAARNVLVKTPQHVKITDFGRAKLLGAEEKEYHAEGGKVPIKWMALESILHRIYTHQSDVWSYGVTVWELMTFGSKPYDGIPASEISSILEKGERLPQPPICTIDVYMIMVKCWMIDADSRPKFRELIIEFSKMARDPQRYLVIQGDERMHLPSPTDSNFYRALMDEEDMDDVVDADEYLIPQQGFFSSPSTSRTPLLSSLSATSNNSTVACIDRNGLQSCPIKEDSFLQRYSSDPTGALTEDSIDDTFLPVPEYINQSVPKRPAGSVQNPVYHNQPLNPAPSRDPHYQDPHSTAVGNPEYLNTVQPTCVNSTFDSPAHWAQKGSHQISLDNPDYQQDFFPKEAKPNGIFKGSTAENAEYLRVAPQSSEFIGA

| GI50 [1] [nM] | GI50 [2] [nM] | Structure (SMILES) |
| --- | --- | --- |
| > 200 | > 200 | N#Cc1cc(C(=O)N[C@@H](c2cc3ccccc3[nH]2)c2cc(F)ccc2O)cc(-c2ccc(N3CCC(N)CC3)cc2)c1 [Example 9, 4′-(4-aminopiperidine-1-yl)-5-cyano-N-((5-fluoro-2-hydroxyphenyl)(1H-indole-2-yl)methyl)-[1,1′-biphenyl]-3-carboxamide] |
| < 30 | 30 to 200 | NC1CCN(c2ccc(-c3cc(Cl)cc(C(=O)N[C@@H](c4cc5ccccc5[nH]4)c4cc(F)ccc4O)c3)cc2)CC1 [Example 10, (R)-4′-(4-aminopiperidine-1-yl)-5-chloro-N-((5-fluoro-2-hydroxyphenyl)(1H-indole-2-yl)methyl)-[1,1′-biphenyl]-3-carboxamide] |
| > 200 | > 200 | NC1CCN(c2ccc(-c3cc(OC(F)(F)F)cc(C(=O)N[C@@H](c4cc5ccccc5[nH]4)c4cc(F)ccc4O)c3)cc2)CC1 [Example 11, (R)-4′-(4-aminopiperidine-1-yl)-N-((5-fluoro-2-hydroxyphenyl)(1H-indole-2-yl)methyl)-5-(trifluoromethoxy)-[1,1′-biphenyl]-3-carboxamide] |
| 30 to 200 | > 200 | COc1ccc(F)cc1[C@@H](NC(=O)c1cc(OC(F)(F)F)cc(-c2ccc(N3CCC(N)CC3)cc2)c1)c1cc2ccccc2[nH]1 [Example 12, (R)-4′-(4-aminopiperidine-1-yl)-N-((5-fluoro-2-methoxyphenyl)(1H-indole-2-yl)methyl)-5-(trifluoromethoxy)-[1,1′-biphenyl]-3-carboxamide] |
| > 200 | > 200 | NC1CCN(c2ccc(-c3cc(C(=O)N[C@@H](c4cc5ccccc5[nH]4)c4cc(F)ccc4O)cc(-n4ccnc4)c3)cc2)CC1 [Example 13, (R)-4′-(4-aminopiperidine-1-yl)-N-((5-fluoro-2-hydroxyphenyl)(1H-indole-2-yl)methyl)-5-(1H-imidazole-1-yl)-[1,1′-biphenyl]-3-carboxamide] |
| 30 to 200 | > 200 | NC1CCN(c2ccc(-c3cc(C(=O)N[C@@H](c4cc5ccccc5[nH]4)c4cc(F)ccc4O)ccn3)cc2)CC1 [Example 14, (R)-2-(4-(4-aminopiperidine-1-yl)phenyl)-N-((5-fluoro-2-hydroxyphenyl)(1H-indole-2-yl)methyl)isonicotinamide] |
| > 200 | > 200 | COc1ccc(F)cc1[C@@H](NC(=O)c1ccnc(-c2ccc(N3CCC(N)CC3)cc2)c1)c1cc2ccccc2[nH]1 [Example 15, (R)-2-(4-(4-aminopiperidine-1-yl)phenyl)-N-((5-fluoro-2-methoxyphenyl)(1H-indole-2-yl)methyl)isonicotinamide] |
| < 30 | 30 to 200 | Cc1cc(C(=O)N[C@@H](c2cc3ccccc3[nH]2)c2cc(F)ccc2O)cc(-c2cnc(N3CCC(N)CC3)nc2)c1 [Example 16, (R)-3-(2-(4-aminopiperidine-1-yl)pyrimidine-5-yl)-N-((5-fluoro-2-hydroxyphenyl)(1H-indole-2-yl)methyl)-5-methylbenzamide] |
| < 30 | < 30 | Cc1cc(C(=O)N[C@@H](c2cc3ccccc3[nH]2)c2cc(F)ccc2O)cc(-c2ccc(N3CCC(N)CC3)cn2)c1 [Example 17, (R)-3-(5-(4-aminopiperidine-1-yl)pyridine-2-yl)-N-((5-fluoro-2-hydroxyphenyl)(1H-indole-2-yl)methyl)-5-methylbenzamide] |
| < 30 | < 30 | Cc1cc(C(=O)N[C@@H](c2cc3ccccc3[nH]2)c2cc(F)ccc2O)cc(-c2cnc(N3CCC(N)CC3)cn2)c1 [Example 18, (R)-3-(5-(4-aminopiperidine-1-yl)pyrazine-2-yl)-N-((5-fluoro-2-hydroxyphenyl)(1H-indole-2-yl)methyl)-5-methylbenzamide] |
| < 30 | < 30 | Cc1cc(C(=O)N[C@@H](c2cc3ccccc3[nH]2)c2cc(F)ccc2O)cc(-c2ccc(N3CCC(N)CC3)nc2)c1 [Example 19, (R)-3-(6-(4-aminopiperidine-1-yl)pyridine-3-yl)-N-((5-fluoro-2-hydroxyphenyl)(1H-indole-2-yl)methyl)-5-methylbenzamide] |
| 30 to 200 | > 200 | Cc1cc(C(=O)N[C@@H](c2cc3ccccc3[nH]2)c2cc(F)ccc2O)cc(-c2ccc(N3CCC(N)CC3)nn2)c1 [Example 20, (R)-3-(6-(4-aminopiperidine-1-yl)pyridazine-3-yl)-N-((5-fluoro-2-hydroxyphenyl)(1H-indole-2-yl)methyl)-5-methylbenzamide] |
| < 30 | < 30 | Cc1cc(C(=O)N[C@@H](c2cc3ccccc3[nH]2)c2cc(F)ccc2O)cc(-c2ncc(N3CCC(N)CC3)cn2)c1 [Example 21, (R)-3-(5-(4-aminopiperidine-1-yl)pyrimidine-2-yl)-N-((5-fluoro-2-hydroxyphenyl)(1H-indole-2-yl)methyl)-5-methylbenzamide] |
| < 30 | < 30 | Cc1cc(C(=O)N[C@@H](c2cc3ccccc3[nH]2)c2cc(F)ccc2O)cc(-c2ccc(N3CCC(N)CC3)c(F)c2)c1 [Example 22, (R)-4′-(4-aminopiperidine-1-yl)-3′-fluoro-N-((5-fluoro-2-hydroxyphenyl)(1H-indole-2-yl)methyl)-5-methyl-[1,1′-biphenyl]-3-carboxamide] |
| < 30 | < 30 | Cc1cc(C(=O)N[C@@H](c2cc3ccccc3[nH]2)c2cc(F)ccc2O)cc(-c2ccc(N3CCC(N)CC3)cc2C)c1 [Example 23, (R)-4′-(4-aminopiperidine-1-yl)-N-((5-fluoro-2-hydroxyphenyl)(1H-indole-2-yl)methyl)-2′,5-dimethyl-[1,1′-biphenyl]-3-carboxamide] |
| < 30 | < 30 | Cc1cc(C(=O)N[C@@H](c2cc3ccccc3[nH]2)c2cc(F)ccc2O)cc(-c2ccc(N3CCC(N)CC3)cc2F)c1 [Example 24, (R)-4′-(4-aminopiperidine-1-yl)-2′-fluoro-N-((5-fluoro-2-hydroxyphenyl)(1H-indole-2-yl)methyl)-5-methyl-[1,1′-biphenyl]-3-carboxamide] |
| < 30 | < 30 | Cc1cc(C(=O)N[C@@H](c2cc3ccccc3[nH]2)c2cc(F)ccc2O)cc(-c2ccc(N3CCC(N)CC3)c(C)c2)c1 [Example 25, (R)-4′-(4-aminopiperidine-1-yl)-N-((5-fluoro-2-hydroxyphenyl)(1H-indole-2-yl)methyl)-3′,5-dimethyl-[1,1′-biphenyl]-3-carboxamide] |
| < 30 | 30 to 200 | Cc1cc(C(=O)N[C@@H](c2cc3ccc(F)cc3[nH]2)c2cc(F)ccc2O)cc(-c2ccc(N3CCC(N)CC3)cc2)c1 [Example 26, (R)-4′-(4-aminopiperidine-1-yl)-N-((6-fluoro-1H-indole-2-yl)(5-fluoro-2-hydroxyphenyl)methyl)-5-methyl-[1,1′-biphenyl]-3-carboxamide] |
| 30 to 200 | > 200 | Cc1cc(C(=O)N[C@@H](c2cc3ccc(Cl)cc3[nH]2)c2cc(F)ccc2O)cc(-c2ccc(N3CCC(N)CC3)cc2)c1 [Example 27, (R)-4′-(4-aminopiperidine-1-yl)-N-((6-chloro-1H-indole-2-yl)(5-fluoro-2-hydroxyphenyl)methyl)-5-methyl-[1,1′-biphenyl]-3-carboxamide] |
| > 200 | > 200 | Cc1c(C(=O)N[C@@H](c2cc3ccccc3[nH]2)c2cc(F)ccc2O)cccc1-c1ccc(N2CCC(N)CC2)cc1 [Example 30, (R)-4′-(4-aminopiperidine-1-yl)-N-((5-fluoro-2-hydroxyphenyl) (1H-indole-2-yl)methyl)-2-methyl-[1,1′-biphenyl]-3-carboxamide] |
| > 200 | > 200 | Cc1cc(C(=O)N[C@H](c2cc3ccccc3[nH]2)c2cc(F)ccc2O)cc(-c2ccc(N3CCC(N)CC3)cc2)c1 [Example 31, (S)-4′-(4-aminopiperidine-1-yl)-N-((5-fluoro-2-hydroxyphenyl)(1H-indole-2-yl)methyl)-5-methyl-[1, l′-biphenyl]-3-carboxamide] |
